The assay addresses T1, KRAS (G12D) (Homo sapiens, UniProt P01116, G12D).
T1 construct: in-cell western with KRAS G12D antibody after 24 h
The assay is described as follows: KRAS (G12D) cellular degradation assay in AsPC-1 cells. The format is cell-based. The note with it: 24 hours, antibody fluorescence (Odyssey CLX), DC50 half-maximal degradation concentration. In short, it runs like this: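 Read-outs were KRAS G12D immunofluorescence against β-actin after 24 h (DC50) and CellTiter Glo luminescence after 6 days (IC50). Compounds were titrated 1:3 from […] to 1.5 nM final on AsPC-1 cells at 37 °C, 5% CO2.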
T1 sequence (P01116 1-188 isoform P01116-2 G12D): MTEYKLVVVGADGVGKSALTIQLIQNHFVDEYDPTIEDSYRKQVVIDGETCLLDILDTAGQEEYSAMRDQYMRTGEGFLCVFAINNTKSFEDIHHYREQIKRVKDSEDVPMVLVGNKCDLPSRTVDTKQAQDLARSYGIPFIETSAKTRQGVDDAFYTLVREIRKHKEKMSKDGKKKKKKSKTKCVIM
Compound `CCn1nccc1-c1ccc([C@H](CO)NC(=O)[C@@H]2C[C@@H](O)CN2C(=O)[C@H](C(C)C)n2cc(-c3ccc(COc4c(-c5c(C)c(F)cc6[nH]ncc56)c(C5CC5)cc5c(N6CCCNCC6)nc(OC[C@H]6CCCO6)nc45)cc3)nn2)cc1` [Example 214, (2S,4R)-1-((2S)-2-(4-(4-(((6-cyclopropyl-4-(1,4-diazepan-1-yl)-7-(6-fluoro-5-methyl-1H-indazol-4-yl)-2-(((R)-tetrahydrofuran-2-yl)methoxy)quinazolin-8-yl)oxy)methyl)phenyl)-1H-1,2,3-triazol-1-yl)-3-methylbutanoyl)-N—((R)-1-(4-(1-ethyl-1H-pyrazol-5-yl)phenyl)-2-hydroxyethyl)-4-hydroxypyrrolidine-2-carboxamide] yielded a DC50 of under 10 nM.
As for `CO[C@@H](C)COc1nc(N(C)[C@H]2CCNC2)c2cc(C3CC3)c(-c3c(C)c(F)c(F)c4[nH]ncc34)c(OCc3ccc(-c4cn([C@H](C(=O)N5C[C@H](O)C[C@H]5C(=O)N[C@H](c5ccc(-c6scnc6C)cc5)C(C)O)C(C)C)nn4)cc3)c2n1` (stereo in doubt) [Example 145, (2S,4R)-1-((2S)-2-(4-(4-(((6-cyclopropyl-7-(6,7-difluoro-5-methyl-1H-indazol-4-yl)-2-((S)-2-methoxypropoxy)-4-(methyl((S)-pyrrolidin-3-yl)amino)quinazolin-8-yl)oxy)methyl)phenyl)-1H-1,2,3-triazol-1-yl)-3-methylbutanoyl)-4-hydroxy-N-((1R,2R)-2-hydroxy-1-(4-(4-methylthiazol-5-yl)phenyl)propyl)pyrrolidine-2-carboxamide], the DC50 was under 10 nM.
As for `CCn1ncc2cccc(C#C[C@H](CO)NC(=O)[C@@H]3C[C@@H](O)CN3C(=O)[C@H](C(C)C)n3cc(-c4ccc(COc5c(-c6c(C)c(F)cc7[nH]ncc67)c(C6CC6)cc6c(N7C[C@@H]8C[C@H]7CN8)nc(O[C@H]7C[C@H](OC)C7)nc56)cc4)nn3)c21` [Example 172, (2S,4R)-1-((2S)-2-(4-(4-(((4-((1S,4S)-2,5-diazabicyclo[2.2.1]heptan-2-yl)-6-cyclopropyl-7-(6-fluoro-5-methyl-1H-indazol-4-yl)-2-((1r,3S)-3-methoxycyclobutoxy)quinazolin-8-yl)oxy)methyl)phenyl)-1H-1,2,3-triazol-1-yl)-3-methylbutanoyl)-N—((R)-4-(1-ethyl-1H-indazol-7-yl)-1-hydroxybut-3-yn-2-yl)-4-hydroxypyrrolidine-2-carboxamide], the figure is 10 to 100 nM.
`CCn1nccc1-c1ccc([C@@H](NC(=O)[C@@H]2C[C@@H](O)CN2C(=O)[C@H](C(C)C)n2cc(-c3ccc(COc4c(-c5c(C)c(F)c(F)c6[nH]ncc56)c(C5CC5)cc5c(N(C)[C@H]6CCNC6)nc(OC[C@H](C)OC)nc45)cc3)nn2)[C@H](C)O)cc1` [Example 146, (2S,4R)-1-((2S)-2-(4-(4-(((6-cyclopropyl-7-(6,7-difluoro-5-methyl-1H-indazol-4-yl)-2-((S)-2-methoxypropoxy)-4-(methyl((S)-pyrrolidin-3-yl)amino)quinazolin-8-yl)oxy)methyl)phenyl)-1H-1,2,3-triazol-1-yl)-3-methylbutanoyl)-N-((1R,2S)-1-(4-(1-ethyl-1H-pyrazol-5-yl)phenyl)-2-hydroxypropyl)-4-hydroxypyrrolidine-2-carboxamide] had a half-maximal degradation concentration (DC50) of 10 to 100 nM.
The figure for `Cc1ncsc1-c1ccc([C@H](CO)NC(=O)[C@@H]2C[C@@H](O)CN2C(=O)[C@H](C(C)C)n2cc(-c3ccc(COc4c(-c5c(C)c(F)cc6[nH]ncc56)c(C5CC5)cc5c(N6CCCNCC6)nc(OC[C@H]6CCCO6)nc45)cc3)nn2)cc1` [Example 213, (2S,4R)-1-((2S)-2-(4-(4-(((6-cyclopropyl-4-(1,4-diazepan-1-yl)-7-(6-fluoro-5-methyl-1H-indazol-4-yl)-2-(((R)-tetrahydrofuran-2-yl)methoxy)quinazolin-8-yl)oxy)methyl)phenyl)-1H-1,2,3-triazol-1-yl)-3-methylbutanoyl)-4-hydroxy-N—((R)-2-hydroxy-1-(4-(4-methylthiazol-5-yl)phenyl)ethyl)pyrrolidine-2-carboxamide] is under 10 nM; for `CO[C@@H](C)COc1nc(N(C)[C@H]2CCNC2)c2cc(C3CCC3)c(-c3c(C)c(F)c(F)c4[nH]ncc34)c(OCc3ccc(-c4cn([C@H](C(=O)N5C[C@H](O)C[C@H]5C(=O)N[C@H](c5ccc(-c6scnc6C)cc5)[C@@H](C)O)C(C)C)nn4)cc3)c2n1` [Example 175, (2S,4R)-1-((2S)-2-(4-(4-(((6-cyclobutyl-7-(6,7-difluoro-5-methyl-1H-indazol-4-yl)-2-((S)-2-methoxypropoxy)-4-(methyl((S)-pyrrolidin-3-yl)amino)quinazolin-8-yl)oxy)methyl)phenyl)-1H-1,2,3-triazol-1-yl)-3-methylbutanoyl)-4-hydroxy-N-((1R,2R)-2-hydroxy-1-(4-(4-methylthiazol-5-yl)phenyl)propyl)pyrrolidine-2-carboxamide] it is 10 to 100 nM.
`CCn1nccc1-c1ccc([C@H](CO)NC(=O)[C@@H]2C[C@@H](O)CN2C(=O)[C@H](C(C)C)n2cc(-c3ccc(COc4c(-c5c(C)c(F)c(F)c6[nH]ncc56)c(C5CC5)cc5c(N6C[C@@H]7C[C@H]6CN7)nc(OC6CCC7(CC6)COC7)nc45)cc3)nn2)cc1` [Example 110, (2S,4R)-1-((2S)-2-(4-(4-(((2-((2-oxaspiro[3.5]nonan-7-yl)oxy)-4-((1S,4S)-2,5-diazabicyclo[2.2.1]heptan-2-yl)-6-cyclopropyl-7-(6,7-difluoro-5-methyl-1H-indazol-4-yl)quinazolin-8-yl)oxy)methyl)phenyl)-1H-1,2,3-triazol-1-yl)-3-methylbutanoyl)-N—((R)-1-(4-(1-ethyl-1H-pyrazol-5-yl)phenyl)-2-hydroxyethyl)-4-hydroxypyrrolidine-2-carboxamide] came in with a DC50 of under 10 nM.
In turn, `CCn1nccc1-c1ccc([C@@H](NC(=O)[C@@H]2C[C@@H](O)CN2C(=O)[C@H](C(C)C)n2cc(-c3ccc(COc4c(-c5c(C)c(F)cc6[nH]ncc56)c(C5CC5)cc5c(N(C)[C@H]6CCNC6)nc(OC[C@H]6CCCO6)nc45)cc3)nn2)[C@H](C)O)c2c1CC2` [Example 209, (2S,4R)-1-((2S)-2-(4-(4-(((6-cyclopropyl-7-(6-fluoro-5-methyl-1H-indazol-4-yl)-4-(methyl((S)-pyrrolidin-3-yl)amino)-2-(((R)-tetrahydrofuran-2-yl)methoxy)quinazolin-8-yl)oxy)methyl)phenyl)-1H-1,2,3-triazol-1-yl)-3-methylbutanoyl)-N-((1R,2S)-1-(5-(1-ethyl-1H-pyrazol-5-yl)bicyclo[4.2.0]octa-1(6),2,4-trien-2-yl)-2-hydroxypropyl)-4-hydroxypyrrolidine-2-carboxamide] came in with a DC50 of under 10 nM.
In turn, `CCn1nccc1-c1ccc([C@@H](NC(=O)[C@@H]2C[C@@H](O)CN2C(=O)[C@H](C(C)C)n2cc(-c3ccc(COc4c(-c5c(C)c(F)cc6[nH]ncc56)c(C5CC5)cc5c(N(C)[C@@H]6CCNC6)nc(O[C@H]6C[C@H](OC)C6)nc45)cc3)nn2)[C@H](C)O)c2c1CC2` [Example 211, (2S,4R)-1-((2S)-2-(4-(4-(((6-cyclopropyl-7-(6-fluoro-5-methyl-1H-indazol-4-yl)-2-((1r,3R)-3-methoxycyclobutoxy)-4-(methyl((R)-pyrrolidin-3-yl)amino)quinazolin-8-yl)oxy)methyl)phenyl)-1H-1,2,3-triazol-1-yl)-3-methylbutanoyl)-N-((1R,2S)-1-(5-(1-ethyl-1H-pyrazol-5-yl)bicyclo[4.2.0]octa-1(6),2,4-trien-2-yl)-2-hydroxypropyl)-4-hydroxypyrrolidine-2-carboxamide] gave a 50% degradation concentration (DC50) of under 10 nM.
`CCn1nccc1-c1ccc([C@H](CO)NC(=O)[C@@H]2C[C@@H](O)CN2C(=O)[C@H](C(C)C)n2cc(-c3ccc(COc4c(-c5c(C)c(F)cc6[nH]ncc56)c(C5CC5)cc5c(N6CCC(O)CC6)nc(OC[C@H](C)OC)nc45)cc3)nn2)cc1` [Example 217, (2S,4R)-1-((2S)-2-(4-(4-(((6-cyclopropyl-7-(6-fluoro-5-methyl-1H-indazol-4-yl)-4-(4-hydroxypiperidin-1-yl)-2-((S)-2-methoxypropoxy)quinazolin-8-yl)oxy)methyl)phenyl)-1H-1,2,3-triazol-1-yl)-3-methylbutanoyl)-N—((R)-1-(4-(1-ethyl-1H-pyrazol-5-yl)phenyl)-2-hydroxyethyl)-4-hydroxypyrrolidine-2-carboxamide] yielded a DC50 of under 10 nM.
In turn, `CCn1nccc1-c1ccc([C@@H](NC(=O)[C@@H]2C[C@@H](O)CN2C(=O)[C@H](C(C)C)n2cc(-c3ccc(COc4c(-c5c(C)c(F)cc6[nH]ncc56)c(C5CC5)cc5c(N(C)[C@H]6CCNC6)nc(OC[C@@H]6CCCO6)nc45)cc3)nn2)[C@H](C)O)c2c1CC2` [Example 210, (2S,4R)-1-((2S)-2-(4-(4-(((6-cyclopropyl-7-(6-fluoro-5-methyl-1H-indazol-4-yl)-4-(methyl((S)-pyrrolidin-3-yl)amino)-2-(((S)-tetrahydrofuran-2-yl)methoxy)quinazolin-8-yl)oxy)methyl)phenyl)-1H-1,2,3-triazol-1-yl)-3-methylbutanoyl)-N-((1R,2S)-1-(5-(1-ethyl-1H-pyrazol-5-yl)bicyclo[4.2.0]octa-1(6),2,4-trien-2-yl)-2-hydroxypropyl)-4-hydroxypyrrolidine-2-carboxamide] displayed a DC50 of under 10 nM.
On to `CCn1nccc1-c1ccc([C@H](CO)NC(=O)[C@@H]2C[C@@H](O)CN2C(=O)[C@H](C(C)C)n2cc(-c3ccc(COc4c(-c5c(C)c(F)cc6[nH]ncc56)c(C5CC5)cc5c(N6CC7COCC(C6)N7)nc(OC[C@H](C)OC)nc45)cc3)nn2)cc1` [Example 37, (2S,4R)-1-((2S)-2-(4-(4-(((4-(3-oxa-7,9-diazabicyclo[3.3.1]nonan-7-yl)-6-cyclopropyl-7-(6-fluoro-5-methyl-1H-indazol-4-yl)-2-((S)-2-methoxypropoxy)quinazolin-8-yl)oxy)methyl)phenyl)-1H-1,2,3-triazol-1-yl)-3-methylbutanoyl)-N—((R)-1-(4-(1-ethyl-1H-pyrazol-5-yl)phenyl)-2-hydroxyethyl)-4-hydroxypyrrolidine-2-carboxamide], for which the DC50 was 10 to 100 nM.
